Assay results published in patent publication US9255085B2, “Carboxamide compounds and methods for using the same” (Rigel Pharmaceuticals, Inc., priority 2008, dated 2016).

Molecular target: AMPK
Test: AMPK activation, enzyme-linked immunosorbent assay
Type: biochemical
Conditions: ELISA, Table 2
Protocol: Compounds 1-13 were assayed for their ability to activate AMPK using an enzyme-linked immunosorbent assay.
Compounds 14-16 were assayed for their ability to activate AMPK using an enzyme-linked immunosorbent assay.
Compounds 17-18 were assayed for their ability to activate AMPK using an enzyme-linked immunosorbent assay.
Compounds 19-22 were assayed for their ability to activate AMPK using an enzyme-linked immunosorbent assay.
Compounds 23-26 were assayed for their ability to activate AMPK using an enzyme-linked immunosorbent assay.
Compounds 27-33 were assayed for their ability to activate AMPK using an enzyme-linked immunosorbent assay.
Compounds 34-42 were assayed for their ability to activate AMPK using an enzyme-linked immunosorbent assay.

Question: With `CC(C)(C)OC(=O)N1CCC(NC(=O)c2nc3ccc(OC4CCN(c5ccc(C(F)(F)F)cc5)CC4)cc3o2)CC1` [Compound 1, tert-butyl 4-(6-(1-(4-(trifluoromethyl)phenyl)piperidin-4-yloxy)benzo[d]oxazole-2-carboxamido)piperidine-1-carboxylate] as the molecule, how does the EC50 read?
Answer: < 100 nM

Question: For `N#Cc1ccc(CN2CCC(NC(=O)c3nc4ccc(OC5CCN(c6ccc(C(F)(F)F)cc6)CC5)cc4o3)CC2)cc1` [Compound 2, N-(1-(4-Cyanobenzyl)piperidin-4-yl)-6-(1-(4-(trifluoromethyl)phenyl)piperidin-4-yloxy)benzo[d]oxazole-2-carboxamide], which EC50 is on record?
Answer: < 100 nM

Question: `O=C(NC1CCN(Cc2ccncc2)CC1)c1nc2ccc(OC3CCN(c4ccc(C(F)(F)F)cc4)CC3)cc2o1` [Compound 3, N-(1-(Pyridin-4-ylmethyl)piperidin-4-yl)-6-(1-(4-(trifluoromethyl)phenyl)piperidin-4-yloxy)benzo[d]oxazole-2-carboxamide] was tested. Which EC50 did it give?
Answer: < 100 nM

Question: Which EC50 does the source give for `O=C(NC1CCN(C(=O)c2ccc(F)cc2)CC1)c1nc2ccc(OC3CCN(c4ccc(C(F)(F)F)cc4)CC3)cc2o1` [Compound 4, N-(1-(4-Fluorobenzoyl)piperidin-4-yl)-6-(1-(4-(trifluoromethyl)phenyl)piperidin-4-yloxy)benzo[d]oxazole-2-carboxamide] here?
Answer: < 100 nM

Question: For `O=C(NC1CCNCC1)c1nc2ccc(OC3CCN(c4ccc(C(F)(F)F)cc4)CC3)cc2o1` [Compound 5, N-(Piperidin-4-yl)-6-(1-(4-(trifluoromethyl)phenyl)piperidin-4-yloxy)benzo[d]oxazole-2-carboxamide], which EC50 is on record?
Answer: 10000 to 100000 nM

Question: How did the EC50 turn out when `N#Cc1ccc(C(=O)N2CCC(NC(=O)c3nc4ccc(OC5CCN(c6ccc(C(F)(F)F)cc6)CC5)cc4o3)CC2)cc1` [Compound 6, N-(1-(4-Cyanobenzoyl)piperidin-4-yl)-6-(1-(4-(trifluoromethyl)phenyl)piperidin-4-yloxy)benzo[d]oxazole-2-carboxamide] was run?
Answer: < 100 nM

Question: Which EC50 does the source give for `O=C(c1nc2ccc(OC3CCN(c4ccc(C(F)(F)F)cc4)CC3)cc2o1)N1CC2CC1CN2Cc1ccncc1` (stereo not drawn) [Compound 8, (5-(pyridin-4-ylmethyl)-2,5-diazabicyclo[2.2.1]heptan-2-yl)(6-(1-(4-(trifluoromethyl)phenyl)piperidin-4-yloxy)benzo[d]oxazol-2-yl)methanone] here?
Answer: 100 to 1000 nM

Question: `NC(=O)c1ccc(CN2CC3CC2CN3C(=O)c2nc3ccc(OC4CCN(c5ccc(C(F)(F)F)cc5)CC4)cc3o2)cc1` (stereo not drawn) [Compound 9, 4-((5-(6-(1-(4-(Trifluoromethyl)phenyl)piperidin-4-yloxy)benzo[d]oxazole-2-carbonyl)-2,5-diazabicyclo[2.2.1]heptan-2-yl)methyl)benzamide] was tested. Which EC50 did it give?
Answer: 100 to 1000 nM

Question: For `N#Cc1ccc(CN2CC3CC2CN3C(=O)c2nc3ccc(OC4CCN(c5ccc(C(F)(F)F)cc5)CC4)cc3o2)cc1` (stereo not drawn) [Compound 10, 4-((5-(6-(1-(4-(Trifluoromethyl)phenyl)piperidin-4-yloxy)benzo[d]oxazole-2-carbonyl)-2,5-diazabicyclo[2.2.1]heptan-2-yl)methyl)benzonitrile], which EC50 is on record?
Answer: 100 to 1000 nM

Question: How did the EC50 turn out when `O=C(c1ccncc1)N1CC2CC1CN2C(=O)c1nc2ccc(OC3CCN(c4ccc(C(F)(F)F)cc4)CC3)cc2o1` (stereo not drawn) [Compound 11, (5-Isonicotinoyl-2,5-diazabicyclo[2.2.1]heptan-2-yl)(6-(1-(4-(trifluoromethyl)phenyl)piperidin-4-yloxy)benzo[d]oxazol-2-yl)methanone] was run?
Answer: 100 to 1000 nM

Question: With `N#Cc1ccc(C(=O)N2CC3CC2CN3C(=O)c2nc3ccc(OC4CCN(c5ccc(C(F)(F)F)cc5)CC4)cc3o2)cc1` (stereo not drawn) [Compound 12, 4-(5-(6-(1-(4-(trifluoromethyl)phenyl)piperidin-4-yloxy)benzo[d]oxazole-2-carbonyl)-2,5-diazabicyclo[2.2.1]heptane-2-carbonyl)benzonitrile] as the molecule, how does the EC50 read?
Answer: < 100 nM

Question: For `O=C(c1ccc(F)cc1)N1CC2CC1CN2C(=O)c1nc2ccc(OC3CCN(c4ccc(C(F)(F)F)cc4)CC3)cc2o1` (stereo not drawn) [Compound 13, (5-(4-fluorobenzoyl)-2,5-diazabicyclo[2.2.1]heptan-2-yl)(6-(1-(4-(trifluoromethyl)phenyl)piperidin-4-yloxy)benzo[d]oxazol-2-yl)methanone], which EC50 is on record?
Answer: < 100 nM

Same assay, conditions: ELISA, Table 3

Question: For `CC(C)(C)OC(=O)N1CCC(NC(=O)c2nc3ccc(OC4CCN(c5ccc(C(F)(F)F)cc5)CC4)cc3s2)CC1` [Compound 14, tert-butyl 4-(6-(1-(4-(trifluoromethyl)phenyl)piperidin-4-yloxy)benzo[d]thiazole-2-carboxamido)piperidine-1-carboxylate], which EC50 is on record?
Answer: 1000 to 10000 nM

Question: How did the EC50 turn out when `O=C(NC1CCN(Cc2ccncc2)CC1)c1nc2ccc(OC3CCN(c4ccc(C(F)(F)F)cc4)CC3)cc2s1` [Compound 15, N-(1-(Pyridin-4-ylmethyl)piperidin-4-yl)-6-(1-(4-(trifluoromethyl)phenyl)piperidin-4-yloxy)benzo[d]thiazole-2-carboxamide] was run?
Answer: 100 to 1000 nM

Question: With `N#Cc1ccc(CN2CCC(NC(=O)c3nc4ccc(OC5CCN(c6ccc(C(F)(F)F)cc6)CC5)cc4s3)CC2)cc1` [Compound 16, N-(1-(4-Cyanobenzyl)piperidin-4-yl)-6-(1-(4-(trifluoromethyl)phenyl)piperidin-4-yloxy)benzo[d]thiazole-2-carboxamide] as the molecule, how does the EC50 read?
Answer: 100 to 1000 nM

Same assay, conditions: ELISA, Table 4

Question: For `O=C(NC1CCN(Cc2ccncc2)CC1)c1cn2ccc(OC3CCN(c4ccc(C(F)(F)F)cc4)CC3)cc2n1` [Compound 17, N-(1-(Pyridin-4-ylmethyl)piperidin-4-yl)-7-(1-(4-(trifluoromethyl)phenyl)piperidin-4-yloxy)imidazo[1,2-a]pyridine-2-carboxamide], which EC50 is on record?
Answer: < 100 nM

Question: For `N#Cc1ccc(CN2CCC(NC(=O)c3cn4ccc(OC5CCN(c6ccc(C(F)(F)F)cc6)CC5)cc4n3)CC2)cc1` [Compound 18, N-(1-(4-Cyanobenzyl)piperidin-4-yl)-7-(1-(4-(trifluoromethyl)phenyl)piperidin-4-yloxy)imidazo[1,2-a]pyridine-2-carboxamide], which EC50 is on record?
Answer: < 100 nM

Same assay, conditions: ELISA, Table 5

Question: Which EC50 does the source give for `CC(C)(C)OC(=O)N1CCC(NC(=O)c2cnc(OC3CCN(c4ccc(C(F)(F)F)cc4)CC3)cn2)CC1` [Compound 19, tert-butyl 4-(5-(1-(4-(trifluoromethyl)phenyl)piperidin-4-yloxy)pyrazine-2-carboxamido)piperidine-1-carboxylate] here?
Answer: 1000 to 10000 nM

Question: With `O=C(NC1CCNCC1)c1cnc(OC2CCN(c3ccc(C(F)(F)F)cc3)CC2)cn1` [Compound 20, N-(piperidin-4-yl)-5-(1-(4-(trifluoromethyl)phenyl)piperidin-4-yloxy)pyrazine-2-carboxamide] as the molecule, how does the EC50 read?
Answer: > 100000 nM

Question: `O=C(NC1CCN(Cc2ccncc2)CC1)c1cnc(OC2CCN(c3ccc(C(F)(F)F)cc3)CC2)cn1` [Compound 21, N-(1-(Pyridin-4-ylmethyl)piperidin-4-yl)-5-(1-(4-(trifluoromethyl)phenyl)piperidin-4-yloxy)pyrazine-2-carboxamide] was tested. Which EC50 did it give?
Answer: < 100 nM

Question: How did the EC50 turn out when `N#Cc1ccc(CN2CCC(NC(=O)c3cnc(OC4CCN(c5ccc(C(F)(F)F)cc5)CC4)cn3)CC2)cc1` [Compound 22, N-(1-(4-Cyanobenzyl)piperidin-4-yl)-5-(1-(4-(trifluoromethyl)phenyl)piperidin-4-yloxy)pyrazine-2-carboxamide] was run?
Answer: < 100 nM

Same assay, conditions: ELISA, Table 6

Question: `N#Cc1ccc(CN2CCC(NC(=O)c3cnc(OC4CCN(c5ccc(C(F)(F)F)cc5)CC4)s3)CC2)cc1` [Compound 23, N-(1-(4-cyanobenzyl)piperidin-4-yl)-2-(1-(4-(trifluoromethyl)phenyl)piperidin-4-yloxy)thiazole-5-carboxamide] was tested. Which EC50 did it give?
Answer: < 100 nM

Question: Which EC50 does the source give for `N#Cc1ccc(CN2CCC(NC(=O)c3cnc(OC4CCN(c5ccc(C#N)cc5)CC4)s3)CC2)cc1` [Compound 24, N-(1-(4-Cyanobenzyl)piperidin-4-yl)-2-(1-(4-cyanophenyl)piperidin-4-yloxy)thiazole-5-carboxamide] here?
Answer: < 100 nM

Question: For `N#Cc1ccc(CN2CCC(NC(=O)c3cnc(OC4CCN(Cc5ccc(C(F)(F)F)cc5)CC4)s3)CC2)cc1` [Compound 25, N-(1-(4-Cyanobenzyl)piperidin-4-yl)-2-(1-(4-(trifluoromethyl)benzyl)piperidin-4-yloxy)thiazole-5-carboxamide], which EC50 is on record?
Answer: < 100 nM

Question: For `CC(C)(C)OC(=O)N1CCC(Oc2ncc(C(=O)NC3CCN(Cc4ccc(C#N)cc4)CC3)s2)CC1` [Compound 26, tert-Butyl 4-(5-(1-(4-cyanobenzyl)piperidin-4-ylcarbamoyl)thiazol-2-yloxy)piperidine-1-carboxylate], which EC50 is on record?
Answer: 1000 to 10000 nM

Same assay, conditions: ELISA, Table 7

Question: For `N#Cc1ccc(CN2CCC(NC(=O)c3ccc(C(=O)N4CCN(Cc5ccc(Cl)cc5)CC4)cc3)CC2)cc1` [Compound 28, 4-(4-(4-Chlorobenzyl)piperazine-1-carbonyl)-N-(1-(4-cyanobenzyl)piperidin-4-yl)benzamide], which EC50 is on record?
Answer: < 100 nM

Question: With `N#Cc1ccc(CN2CCC(NC(=O)c3ccc(C(=O)N4CCN(c5ccc(Cl)cc5)CC4)cc3)CC2)cc1` [Compound 29, 4-(4-(4-Chlorophenyl)piperazine-1-carbonyl)-N-(1-(4-cyanobenzyl)piperidin-4-yl)benzamide] as the molecule, how does the EC50 read?
Answer: 10000 to 100000 nM

Question: `N#Cc1ccc(CN2CCC(NC(=O)c3ccc(C(=O)N4CCN(c5ccc(C(F)(F)F)cn5)CC4)cc3)CC2)cc1` [Compound 30, N-(1-(4-Cyanobenzyl)piperidin-4-yl)-4-(4-(5-(trifluoromethyl)pyridin-2-yl)piperazine-1-carbonyl)benzamide] was tested. Which EC50 did it give?
Answer: < 100 nM

Question: For `N#Cc1ccc(CN2CCC(NC(=O)c3ccc(C(=O)NC4CCN(Cc5ccc(C(F)(F)F)cc5)CC4)cc3)CC2)cc1` [Compound 31, N^1-(1-(4-Cyanobenzyl)piperidin-4-yl)-N^4-(1-(4-(trifluoromethyl)benzyl)piperidin-4-yl)terephthalamide], which EC50 is on record?
Answer: < 100 nM

Question: For `N#Cc1ccc(CN2CCC(NC(=O)c3ccc(C(=O)NC4CCN(c5ccccc5)CC4)cc3)CC2)cc1` [Compound 32, N^1-(1-(4-Cyanobenzyl)piperidin-4-yl)-N^4-(1-phenylpiperidin-4-yl)terephthalamide], which EC50 is on record?
Answer: 10000 to 100000 nM
